Laboratory results as given in PMC5428333, “Novel protein acetyltransferase, Rv2170, modulates carbon and energy metabolism in Mycobacterium tuberculosis” (Scientific Reports, 2017).

Biological target: T1, ICDH1 (Rv3339c) (Mycobacterium tuberculosis, UniProt P9WKL1)
T1 construct: gene icd-1
Assay: NADPH formation at […] nm
Type: biochemical
Settings: 2 mM NADP+, 0.25 mM DL-isocitrate, 10 mM MgCl2, 5 mM MnCl2, 20 mM Tris-HCl pH 7.5, room temperature

T1 sequence (P9WKL1 whole entry): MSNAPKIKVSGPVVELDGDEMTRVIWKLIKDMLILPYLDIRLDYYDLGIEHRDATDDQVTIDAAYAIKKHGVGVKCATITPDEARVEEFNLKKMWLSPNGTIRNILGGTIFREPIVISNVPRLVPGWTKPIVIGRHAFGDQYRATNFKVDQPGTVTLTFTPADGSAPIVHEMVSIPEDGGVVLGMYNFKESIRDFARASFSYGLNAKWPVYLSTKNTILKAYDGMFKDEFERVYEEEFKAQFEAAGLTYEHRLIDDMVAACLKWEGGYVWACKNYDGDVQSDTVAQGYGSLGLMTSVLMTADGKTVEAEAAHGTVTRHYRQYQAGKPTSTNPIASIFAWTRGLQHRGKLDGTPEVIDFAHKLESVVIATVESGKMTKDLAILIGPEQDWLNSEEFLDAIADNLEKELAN

NC(=O)c1ccc[n+]([C@@H]2O[C@H](COP(=O)(O)OP(=O)(O)OC[C@H]3O[C@@H](n4cnc5c(N)ncnc54)[C@H](OP(=O)(O)O)[C@@H]3O)[C@@H](O)[C@H]2O)c1 [NADP^+]
NADPH formation at 340 nm: monitoring the time dependent reduction of NADP^+ to NADPH
